Laboratory results as given in patent publication US9611267B2, “Substituted tricyclic compounds as FGFR inhibitors” (Incyte Corporation, priority 2012, dated 2017).
Where two headings read alike, the source gives them in different places.

Experiments:
Assay type in all cases: biochemical
FGFR2 = FGFR2 (Homo sapiens (Human), UniProt P21802); experiment: FGFR enzymatic assay (FRET peptide phosphorylation), FGFR2
Summary of the method: (§1)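 Recombinant kinase was pre-incubated 5–10 min with serially diluted inhibitor in HEPES buffer (10 mM MgCl2, 5 mM DTT, pH 7.5; buffer described for FGFR3). Peptide phosphorylation ran 1 h at 25 °C and was detected by FRET after ~1 h equilibration. IC50 values come from variable-slope sigmoidal fits.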

FGFR1 = FGFR1 (Homo sapiens (Human), UniProt P11362); experiment: FGFR enzymatic assay (FRET peptide phosphorylation), FGFR1
Summary of the method: as §1

FGFR3 = FGFR3 (Homo sapiens (Human), UniProt P22607); experiment: FGFR enzymatic assay (FRET peptide phosphorylation), FGFR3
Summary of the method: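 FRET assay of peptide phosphorylation by FGFR3 in HEPES pH 7.5 buffer with MgCl2, EGTA, Tween-20 and DTT. Enzyme was pre-incubated 5-10 min with compound, and the reaction ran 1 hr at 25° C. IC50 came from a variable-slope sigmoidal fit.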

[1] = FGFR2 enzyme 0.01 nM, ATP 100 μM
[2] = FGFR1 enzyme 0.02 nM, ATP 210 μM
[3] = FGFR3 enzyme (Millipore), ATP 140 μM

Sequence of FGFR3 (P22607 23-806): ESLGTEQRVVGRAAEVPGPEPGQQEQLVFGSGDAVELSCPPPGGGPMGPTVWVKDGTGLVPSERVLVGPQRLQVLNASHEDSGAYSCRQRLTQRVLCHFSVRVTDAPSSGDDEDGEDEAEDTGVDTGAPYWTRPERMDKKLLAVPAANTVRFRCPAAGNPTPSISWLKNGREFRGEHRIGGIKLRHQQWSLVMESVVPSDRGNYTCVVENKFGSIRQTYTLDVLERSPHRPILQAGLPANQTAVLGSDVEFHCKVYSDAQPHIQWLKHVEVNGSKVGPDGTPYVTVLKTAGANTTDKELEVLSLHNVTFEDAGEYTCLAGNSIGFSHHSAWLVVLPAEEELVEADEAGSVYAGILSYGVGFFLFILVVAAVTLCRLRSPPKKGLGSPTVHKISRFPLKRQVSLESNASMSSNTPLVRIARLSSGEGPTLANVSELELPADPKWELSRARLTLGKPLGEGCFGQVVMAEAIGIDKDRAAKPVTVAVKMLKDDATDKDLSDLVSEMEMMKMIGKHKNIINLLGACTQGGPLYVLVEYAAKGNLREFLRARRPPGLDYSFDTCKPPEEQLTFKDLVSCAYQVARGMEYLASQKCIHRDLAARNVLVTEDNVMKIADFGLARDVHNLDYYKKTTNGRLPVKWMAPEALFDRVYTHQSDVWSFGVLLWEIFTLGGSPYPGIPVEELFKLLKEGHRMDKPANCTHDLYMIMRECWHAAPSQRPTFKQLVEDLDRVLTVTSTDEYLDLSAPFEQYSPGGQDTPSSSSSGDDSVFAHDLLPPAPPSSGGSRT
Sequence of FGFR2 (P21802 22-821): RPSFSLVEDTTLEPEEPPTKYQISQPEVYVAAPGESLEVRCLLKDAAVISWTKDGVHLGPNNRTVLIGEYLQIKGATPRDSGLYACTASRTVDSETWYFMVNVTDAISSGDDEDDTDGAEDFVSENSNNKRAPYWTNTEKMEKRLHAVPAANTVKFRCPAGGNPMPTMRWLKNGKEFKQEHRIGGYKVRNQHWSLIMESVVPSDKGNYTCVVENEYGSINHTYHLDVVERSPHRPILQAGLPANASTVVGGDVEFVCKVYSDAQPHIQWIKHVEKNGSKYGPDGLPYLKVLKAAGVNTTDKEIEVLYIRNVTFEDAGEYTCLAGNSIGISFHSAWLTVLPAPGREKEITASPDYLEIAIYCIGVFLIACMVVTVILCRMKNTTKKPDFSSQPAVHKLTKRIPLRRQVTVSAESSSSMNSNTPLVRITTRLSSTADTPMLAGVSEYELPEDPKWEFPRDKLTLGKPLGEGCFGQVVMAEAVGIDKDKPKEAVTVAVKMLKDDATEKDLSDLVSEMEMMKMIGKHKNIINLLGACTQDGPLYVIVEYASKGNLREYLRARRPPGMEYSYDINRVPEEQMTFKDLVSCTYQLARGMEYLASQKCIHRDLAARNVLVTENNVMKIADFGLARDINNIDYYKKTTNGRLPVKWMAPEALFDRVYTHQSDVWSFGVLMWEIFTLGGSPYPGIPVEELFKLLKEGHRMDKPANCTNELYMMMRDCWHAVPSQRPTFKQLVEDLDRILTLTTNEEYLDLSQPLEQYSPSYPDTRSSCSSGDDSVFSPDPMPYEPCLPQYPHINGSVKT
Sequence of FGFR1 (P11362 22-822): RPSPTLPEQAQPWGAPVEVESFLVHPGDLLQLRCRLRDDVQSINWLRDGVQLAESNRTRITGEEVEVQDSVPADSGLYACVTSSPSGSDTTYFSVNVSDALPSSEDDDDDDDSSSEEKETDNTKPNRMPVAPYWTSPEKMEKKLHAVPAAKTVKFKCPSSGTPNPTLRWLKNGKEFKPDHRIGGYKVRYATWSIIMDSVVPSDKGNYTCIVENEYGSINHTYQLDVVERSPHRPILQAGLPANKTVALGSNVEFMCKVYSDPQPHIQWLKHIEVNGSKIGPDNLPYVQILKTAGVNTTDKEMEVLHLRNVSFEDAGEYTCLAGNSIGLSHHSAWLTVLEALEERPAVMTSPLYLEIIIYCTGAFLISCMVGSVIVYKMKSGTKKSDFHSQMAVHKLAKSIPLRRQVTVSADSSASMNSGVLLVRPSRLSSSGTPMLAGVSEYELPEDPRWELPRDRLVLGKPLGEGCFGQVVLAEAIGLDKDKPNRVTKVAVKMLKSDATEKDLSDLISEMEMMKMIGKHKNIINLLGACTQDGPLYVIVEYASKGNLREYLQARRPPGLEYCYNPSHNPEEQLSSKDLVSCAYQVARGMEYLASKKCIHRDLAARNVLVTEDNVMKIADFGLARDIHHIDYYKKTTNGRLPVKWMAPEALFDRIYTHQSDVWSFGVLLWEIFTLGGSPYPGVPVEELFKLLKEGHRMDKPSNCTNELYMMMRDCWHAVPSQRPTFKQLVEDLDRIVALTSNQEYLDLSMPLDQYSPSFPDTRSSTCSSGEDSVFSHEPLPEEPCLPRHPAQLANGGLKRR

Structure (SMILES)	IC50 (FGFR2; [1])	IC50 (FGFR1; [2])	IC50 (FGFR3; [3])	IC50 (FGFR2)	IC50 (FGFR1)	IC50 (FGFR3)
COc1cc(OC)c(Cl)c(N2Cc3cnc4[nH]c(C(=O)N(C)C)cc4c3N(C)C2=O)c1 [Example 24, 3-(2-Chloro-3,5-dimethoxyphenyl)-N,N,1-trimethyl-2-oxo-2,3,4,7-tetrahydro-1H-pyrrolo[3′,2′:5,6]pyrido[4,3-d]pyrimidine-8-carboxamide]	< 100 nM	< 100 nM	< 100 nM	–	–	–
COc1cc(OC)c(F)c(N2Cc3cnc4[nH]c(CN5CCOCC5)cc4c3N(c3ccncc3)C2=O)c1F [Example 194, 3-(2,6-difluoro-3,5-dimethoxyphenyl)-8-(morpholin-4-ylmethyl)-1-pyridin-4-yl-1,3,4,7-tetrahydro-2H-pyrrolo[3′,2′:5,6]pyrido[4,3-d]pyrimidin-2-one]	< 100 nM	< 100 nM	< 100 nM	–	–	–
CCN1CCC(Cc2cc3c4c(cnc3[nH]2)CN(c2c(F)c(OC)cc(OC)c2F)C(=O)N4C)CC1 [Example 73, 3-(2,6-difluoro-3,5-dimethoxyphenyl)-8-[(1-ethylpiperidin-4-yl)methyl]-1-methyl-1,3,4,7-tetrahydro-2H-pyrrolo[3′,2′:5,6]pyrido[4,3-d]pyrimidin-2-one]	< 100 nM	< 100 nM	< 100 nM	–	–	–
COc1cc(OC)cc(N2Cc3cnc4[nH]c(C(=O)N5CCN(C)CC5)cc4c3N(C)C2=O)c1 [Example 22, 3-(3,5-Dimethoxyphenyl)-1-methyl-8-[(4-methylpiperazin-1-yl)carbonyl]-1,3,4,7-tetrahydro-2H-pyrrolo[3′,2′:5,6]pyrido[4,3-d]pyrimidin-2-one]	< 100 nM	< 100 nM	< 100 nM	–	–	–
COc1cc(OC)c(F)c(N2Cc3cnc4[nH]c(CCN5CC(OC)C5)cc4c3N(C)C2=O)c1F [Example 144, 3-(2,6-difluoro-3,5-dimethoxyphenyl)-8-[2-(3-methoxyazetidin-1-yl)ethyl]-1-methyl-1,3,4,7-tetrahydro-2Hpyrrolo[3′,2′:5,6]pyrido[4,3-d]pyrimidin-2-one]	< 100 nM	< 100 nM	< 100 nM	–	–	–
COc1cc(OC)c(F)c(N2Cc3cnc4[nH]ccc4c3CC2=O)c1F [Example 60, 7-(2,6-difluoro-3,5-dimethoxyphenyl)-3,6,7,9-tetrahydro-8H-pyrrolo[2,3-c]-2,7-naphthyridin-8-one]	< 100 nM	< 100 nM	< 100 nM	–	–	–
COc1cc(OC)c(F)c(N2Cc3cnc4[nH]nc(C)c4c3N(C)C2=O)c1F [Example 52, 3-(2,6-Difluoro-3,5-dimethoxyphenyl)-1,9-dimethyl-1,3,4,7-tetrahydro-2H-pyrazolo[4′,3′:5,6]pyrido[4,3-d]pyrimidin-2-one]	< 100 nM	< 100 nM	< 100 nM	–	–	–
COc1cc(OC)c(F)c(N2Cc3cnc4c(c3N(Cc3cccc(F)c3)C2=O)CC(=O)N4)c1F [Example 65, 3-(2,6-difluoro-3,5-dimethoxyphenyl)-1-(3-fluorobenzyl)-3,4,7,9-tetrahydro-1H-pyrrolo[3′,2′:5,6]pyrido[4,3-d]pyrimidine-2,8-dione]	< 100 nM	< 100 nM	< 100 nM	–	–	–
COc1cc(OC)c(F)c(N2Cc3cnc4[nH]ccc4c3C3(CCN(C)CC3)C2=O)c1F [Example 151, 7′-(2,6-difluoro-3,5-dimethoxyphenyl)-1-methyl-6′,7′-dihydrospiro[piperidine-4,9′-pyrrolo[2,3-c][2,7]naphthyridin]-8′(3′H)-one]	–	–	–	< 100 nM	< 100 nM	< 100 nM
COc1cc(OC)cc(N2Cc3cnc4[nH]c(C5=CCN(C)CC5)cc4c3N(C)C2=O)c1 [Example 17, 3-(3,5-Dimethoxyphenyl)-1-methyl-8-(1-methyl-1,2,3,6-tetrahydropyridin-4-yl)-1,3,4,7-tetrahydro-2H-pyrrolo[3′,2′:5,6]pyrido[4,3-d]pyrimidin-2-one]	< 100 nM	–	< 100 nM	–	< 100 nM	–

Second part, led by results:

IC50 (FGFR2; [1])	IC50 (FGFR1; [2])	IC50 (FGFR3; [3])	Structure (SMILES)	IC50 (FGFR2)	IC50 (FGFR1)	IC50 (FGFR3)
< 100 nM	< 100 nM	< 100 nM	COc1cc(OC)c(F)c(N2Cc3cnc4[nH]ncc4c3N(CCn3cccn3)C2=O)c1F [Example 165, 3-(2,6-Difluoro-3,5-dimethoxyphenyl)-1-[2-(1H-pyrazol-1-yl)ethyl]-1,3,4,7-tetrahydro-2H-pyrazolo[4′,3′:5,6]pyrido[4,3-d]pyrimidin-2-one]	–	–	–
< 100 nM	< 100 nM	< 100 nM	COc1cc(OC)c(F)c(N2Cc3cnc4[nH]c(CN5CCN(C)CC5)cc4c3N(C)C2=O)c1F [Example 129, 3-(2,6-difluoro-3,5-dimethoxyphenyl)-1-methyl-8-[(4-methylpiperazin-1-yl)methyl]-1,3,4,7-tetrahydro-2H-pyrrolo[3′,2′:5,6]pyrido[4,3-d]pyrimidin-2-one]	–	–	–
< 100 nM	< 100 nM	< 100 nM	COc1cc(OC)c(F)c(N2Cc3cnc4[nH]c(CCCN5CCOCC5)cc4c3N(C)C2=O)c1F [Example 117, 3-(2,6-difluoro-3,5-dimethoxyphenyl)-1-methyl-8-(3-morpholin-4-ylpropyl)-1,3,4,7-tetrahydro-2H-pyrrolo[3′,2′:5,6]pyrido[4,3-d]pyrimidin-2-one]	–	–	–
< 100 nM	< 100 nM	< 100 nM	CCN1C(=O)N(c2c(F)c(OC)cc(OC)c2F)Cc2cnc3[nH]c(CN4CCN(C)CC4)cc3c21 [Example 127, 3-(2,6-difluoro-3,5-dimethoxyphenyl)-1-ethyl-8-[(4-methylpiperazin-1-yl)methyl]-1,3,4,7-tetrahydro-2H-pyrrolo[3′,2′:5,6]pyrido[4,3-d]pyrimidin-2-one]	–	–	–
< 100 nM	< 100 nM	< 100 nM	COc1cc(CN2C(=O)N(c3c(F)c(OC)cc(OC)c3F)Cc3cnc4[nH]c(CN5CCOCC5)cc4c32)ccn1 [Example 202, 3-(2,6-difluoro-3,5-dimethoxyphenyl)-1-[(2-methoxypyridin-4-yl)methyl]-8-(morpholin-4-ylmethyl)-1,3,4,7-tetrahydro-2H-pyrrolo[3′,2′:5,6]pyrido[4,3-d]pyrimidin-2-one]	–	–	–
< 100 nM	< 100 nM	< 100 nM	COc1cc(OC)c(F)c(N2Cc3cnc4[nH]c(CN5CCOCC5)cc4c3N(C3CCC3)C2=O)c1F [Example 182, 1-cyclobutyl-3-(2,6-difluoro-3,5-dimethoxyphenyl)-8-(morpholin-4-ylmethyl)-1,3,4,7-tetrahydro-2H-pyrrolo[3′,2′:5,6]pyrido[4,3-d]pyrimidin-2-one]	–	–	–
< 100 nM	< 100 nM	< 100 nM	COc1cc(OC)c(F)c(N2Cc3cnc4[nH]c(CCN5CCOCC5)cc4c3N(c3ccc(F)cc3)C2=O)c1F [Example 225, 3-(2,6-difluoro-3,5-dimethoxyphenyl)-1-(4-fluorophenyl)-8-(2-morpholin-4-ylethyl)-1,3,4,7-tetrahydro-2H-pyrrolo[3′,2′:5,6]pyrido[4,3-d]pyrimidin-2-one]	–	–	–
< 100 nM	< 100 nM	< 100 nM	COc1cc(OC)c(F)c(N2Cc3cnc4[nH]c(C(=O)N(C)C)cc4c3N(C)C2=O)c1 [Example 34, 3-(2-Fluoro-3,5-dimethoxyphenyl)-N,N,1-trimethyl-2-oxo-2,3,4,7-tetrahydro-1H-pyrrolo[3′,2′:5,6]pyrido[4,3-d]pyrimidine-8-carboxamide]	–	–	–
< 100 nM	< 100 nM	< 100 nM	COc1cc(OC)c(F)c(N2Cc3cnc4[nH]c(C(=O)N5C[C@@H](C)N[C@@H](C)C5)cc4c3N(C)C2=O)c1F [Example 120, 3-(2,6-difluoro-3,5-dimethoxyphenyl)-8-{[(3R,5S)-3,5-dimethylpiperazin-1-yl]carbonyl}-1-methyl-1,3,4,7-tetrahydro-2H-pyrrolo[3′,2′:5,6]pyrido[4,3-d]pyrimidin-2-one]	–	–	–
< 100 nM	< 100 nM	< 100 nM	COc1cc(OC)c(F)c(N2Cc3cnc4[nH]ncc4c3N(C[C@H]3CCOC3)C2=O)c1F [Example 178, 3-(2,6-difluoro-3,5-dimethoxyphenyl)-1-[(3R)-tetrahydrofuran-3-ylmethyl]-1,3,4,7-tetrahydro-2H-pyrazolo[4′,3′:5,6]pyrido[4,3-d]pyrimidin-2-one]	–	–	–
< 100 nM	< 100 nM	< 100 nM	COc1cc(OC)c(F)c(N2Cc3cnc4[nH]c(C5CCOCC5)cc4c3N(C)C2=O)c1F [Example 39, 3-(2,6-Difluoro-3,5-dimethoxyphenyl)-1-methyl-8-(tetrahydro-2H-pyran-4-yl)-1,3,4,7-tetrahydro-2H-pyrrolo[3′,2′:5,6]pyrido[4,3-d]pyrimidin-2-one]	–	–	–
< 100 nM	< 100 nM	< 100 nM	CCn1cc(N2C(=O)N(c3c(F)c(OC)cc(OC)c3F)Cc3cnc4[nH]ncc4c32)cn1 [Example 172, 3-(2,6-difluoro-3,5-dimethoxyphenyl)-1-(1-ethyl-1H-pyrazol-4-yl)-1,3,4,7-tetrahydro-2H-pyrazolo[4′,3′:5,6]pyrido[4,3-d]pyrimidin-2-one]	–	–	–
< 100 nM	< 100 nM	< 100 nM	COc1cc(OC)c(Cl)c(N2Cc3cnc4[nH]c(-c5cnn(C)c5)cc4c3N(C)C2=O)c1 [Example 13, 3-(2-Chloro-3,5-dimethoxyphenyl)-1-methyl-8-(1-methyl-1H-pyrazol-4-yl)-1,3,4,7-tetrahydro-2H-pyrrolo[3′,2′:5,6]pyrido[4,3-d]pyrimidin-2-one]	–	–	–
< 100 nM	< 100 nM	< 100 nM	COc1cc(OC)c(F)c(N2Cc3cnc4ccsc4c3N(C)C2=O)c1F [Example 38, 3-(2,6-Difluoro-3,5-dimethoxyphenyl)-1-methyl-3,4-dihydrothieno[2′,3′:5,6]pyrido[4,3-d]pyrimidin-2(1H)-one]	–	–	–
